Structures can show the parent of a compound that is named as a salt.
Assays:
[1] = test system: phenyl-p-quinone writhing in mice; assay: Analgesic activity: phenyl-p-quinone induced writhing in mice; format: in vivo, male T/O mice; settings: 1 hour prior to phenyl-p-quinone injection, observed 8 minutes, Litchfield and Wilcoxon; for ED50: Mus musculus, po, read-out: ED50 (mice prevented from writhing)
Experimental: Groups of 10 male T/O mice weighing between 20 and 25 g were injected intraperitoneally with 0.2 ml of a 0.02% solution of phenyl-p-quinone maintained at 37° C. […] Compounds were administered orally 1 hour prior to phenyl-p-quinone injection. The percentage of mice prevented from writhing in each group was plotted against dose of compound on log probit paper and the ED50 was calculated by the method of Litchfield, J. T. and Wilcoxon, F. (1949), J. Pharmac. exp. Ther., 96 (2), 99-113.

[2] = test system: carrageenin-induced oedema in rat paw; assay: Anti-inflammatory activity: standard rat paw carrageenin-induced oedema test; format: in vivo, male Wistar rats; settings: 1 hr before carrageenin
Experimental: The sodium salt of compound (1) was tested for anti-inflammatory activity by the standard rat paw carrageenin-induced oedema test:
Groups of 8 male Wistar rats weighing between 120 and 165 g. were dosed orally with the compound 1 hr. before the sub-cutaneous injection of 0.1 ml 1.5% carrageenin into a paw to induce oedema. The duration of the oedema was 3-31/2 hr. The significance of results was assessed by Student's `t` test.

SMILES | ED50 [1] | % inhibition of oedema w.r.t. methylcellulose control ([2]; 1.67 mg/kg p.o., *0.001 < p < 0.01) | % inhibition of oedema w.r.t. methylcellulose control ([2]; 5 mg/kg p.o., **p < 0.001) | % inhibition of oedema w.r.t. methylcellulose control ([2]; 15 mg/kg p.o., **p < 0.001) | ED25 ([2]; rat, oral, read-out: ED25 (inhibition of oedema)) | ED50 (mice prevented from writhing) ([1]; oral, listed as No salt thereof)
Cn1c(CC(=O)O)cc(C(F)(F)F)c1C(=O)c1ccc(Cl)cc1 [(1), 5-p-Chlorobenzoyl-1-methyl-4-trifluoromethylpyrrole-2-acetic acid] | 1.75 mg/kg |  |  |  |  | 
CC(=O)CCc1cc(C(F)(F)F)c(C(=O)c2ccc(Cl)cc2)n1C [(13), 4-[5'-(4"-chlorobenzoyl)-1'-methyl-4'-trifluoromethyl-2'-pyroyl]butan-2-one] | 25 mg/kg |  |  |  |  | 
Cn1c(CC(=O)O)cc(C(F)(F)F)c1C(=O)c1ccc(Cl)cc1 [sodium salt of compound (1)] |  | 18% | 25% | 30% | 5.5 mg/kg | 1.6 mg/kg p.o.
